Assays:
[1] = Stability of esylate salt in water and aqueous ethanol (dissociation to free base); type: physicochemical; conditions: in water and aqueous ethanol solutions
Source text: Spontaneous precipitation from the aqueous solution afforded Compound 6 as free base; a new crystalline XRPD pattern was observed (See FIG. 38). The free base of Compound 6 was partially precipitated upon water addition to the ethanol solution and was further recovered by evaporation of the ethanol: water solution. These observations indicate the esylate salt is unstable in water and aqueous ethanol due to dissociation.
A new crystalline XRPD pattern designated as Form A of the free base of Compound 6 was observed from precipitation in ethanol with water (antisolvent) when amorphous ethanesulfonate salt of Compound 6 was used. (FIG. 38, top pattern). Summary of the data obtained for Form A of the free base is shown below in Table 16. […] The Compound 6 free base was recovered by further evaporation of the aqueous ethanol solution. […] These observations indicate the esylate salt is unstable due to dissociation in water and aqueous ethanol solutions.

[2] = Solubility/crystallization screen of Compound 6 salts (20 mg salt, solvent, heating, then standing)
Protocol: The resulting solids were analyzed by DSC and portions of each salt were tested for solubility and crystallization from the following solvents:
20 mg of salt was charged to a 1-dram screw-top vial. Solvent (enough to cover the solids) was added, the vial was capped and heated (heat gun) to aid dissolution. If no, or partial dissolution was observed, the vial was allowed to cool, additional solvent was added and the process repeated. The solubility was characterized as follows: Soluble (sol): the solids dissolved upon heating, Sparingly soluble (sp): the solids dissolved upon heating after two or more additions of solvent or Insoluble (I): complete dissolution could not be achieved. […] The vials containing solids were filtered and analyzed by DSC.

[3] = Solubility in ethanol observed during salt formation; type: physicochemical
Protocol: To a 2-L Morton flask equipped with a heating mantle, thermocouple, condenser and mechanical stirrer was charged (4-fluorophenyl)(4-((5-methyl-1H-pyrazol-3-yl)amino)quinazolin-2-yl)methanol free base (40.20 g, 115 mmol, 1.0 equiv.). Ethanol (1.6 L) was added and the suspension was stirred and heated to reflux (78° C., internal temperature) until dissolution of the suspension was observed. Ethanesulfonic acid (9.4 mL, 115 mmol, 1.0 equiv.) was charged to the resulting yellow solution. Reflux was maintained for 1 hour, then heating was discontinued and the reaction was allowed to cool to room temperature and stirred overnight. Stirring was stopped and the solids were allowed to settle. The reaction was filtered and the initial isolated product (R)-(4-fluorophenyl)(4-((5-methyl-1H-pyrazol-3-yl)amino)quinazolin-2-yl)methanol dried in a vacuum oven (45° C., ˜20 torr) for 3 days to produce 29.69 g, 65 mmol, 56% yield. The supernatant was concentrated and a second crop of the product was obtained and dried as the first to produce 10.52 g, 23 mmol, 20% yield.
The combined yield for the two crops was 76%. […] Higher yields of salt can be obtained by reducing the amount of ethanol. […]

[4] = standing 1 h after cooling to room temperature
[5] = standing 4 d after cooling to room temperature

Question: With `CCS(=O)(=O)O` [Ethanesulfonic acid] as the molecule, how does the “Stability of the salt (dissociation to free base)” value [1] read?
Answer: Its value is “unstable”.

Question: What about the “Solubility in EtOH” value ([2]; Heating) of the same molecule?
Answer: Its value is “sol”.

Question: And the “Solubility in H2O” value ([2]; Heating)?
Answer: Its value is “sol”.

Question: What about the “Solubility in IPA” value ([2]; Heating) of the same molecule?
Answer: Its value is “sol”.

Question: And the “Solubility in MeOH” value ([2]; Heating)?
Answer: The value was “sol”.

Question: What about the “Solubility/crystallization in EtOH” value [2, 4] of the same molecule?
Answer: The value was “cryst”.

Question: And the “Solubility/crystallization in H2O” value [2, 4]?
Answer: The value was “gels”.

Question: And the “Solubility/crystallization in IPA” value [2, 4]?
Answer: The value was “cryst”.

Question: And the “Solubility/crystallization in MeOH” value [2, 4]?
Answer: Its value is “sol”.

Question: What about the “Solubility/crystallization in EtOH” value [2, 5] of the same molecule?
Answer: Its value is “cryst”.

Question: What about the “Solubility/crystallization in IPA” value [2, 5] of the same molecule?
Answer: Its value is “cryst”.

Question: And the “Solubility/crystallization in MeOH” value [2, 5]?
Answer: The value was “sol”.

Question: And the “Solubility in ethanol compared to the free base” value [3]?
Answer: Its value is “higher solubility in ethanol”.

Source: patent US9611253B2, “Solid forms comprising optically active pyrazolylaminoquinazoline, compositions thereof, and uses therewith” (AMBIT BIOSCIENCES CORPORATION, priority 2012, dated 2017)
